Values of other authors in patent US9708371B2, “Treatments for gastrointestinal disorders” (Ironwood Pharmaceuticals, Inc., priority 2011, dated 2017).
Bridge positions count the residues as written; N and C are the ends. Peptide text beside a SMILES is read from it.

Settings: therapeutic dose levels

C[C@@H]1NC(=O)[C@@H]2CCCN2C(=O)[C@H](CC(N)=O)NC(=O)[C@@H]2CSSC[C@H](N)C(=O)N[C@H]3CSSC[C@H](NC1=O)C(=O)N[C@@H]([C@@H](C)O)C(=O)NCC(=O)N[C@H](C(=O)N[C@@H](Cc1ccc(O)cc1)C(=O)O)CSSC[C@H](NC(=O)[C@H](Cc1ccc(O)cc1)NC(=O)[C@H](CCC(=O)O)NC3=O)C(=O)N2 [Linaclotide, Cys Cys Glu Tyr Cys Cys Asn Pro Ala Cys Thr Gly Cys Tyr] (H-CCEYCCNPACTGCY-OH; disulfide 1-6, 2-10, 5-13 (inferred); N-terminus and C-terminus assumed)
levels seen systemically after oral administration: no detectable levels
